Results taken from article PMC8817134, “Galangin as a direct inhibitor of vWbp protects mice from Staphylococcus aureus‐induced pneumonia” (Journal of Cellular and Molecular Medicine, 2021).

Key:
[1] = molecular target: T1, vWbp (von Willebrand factor-binding protein) (Staphylococcus aureus, UniProt Q93SM9); experiment: fluorescence quenching; conditions: read-out: WT vWbp (converted)
T1 construct: gene vwb; His-tagged, pET15b, E. coli BL21(DE3), Ni-NTA purified
From the text: (§1) fluorescence quenching on vWbp (von Willebrand factor-binding protein)

[2] = molecular target: T2, vWbp (von Willebrand factor-binding protein) (Staphylococcus aureus, UniProt Q93SM9, W64A); experiment: biochemical
T2 construct: gene vwb
From the text: as §1

[3] = molecular target: T3, vWbp (von Willebrand factor-binding protein) (Staphylococcus aureus, UniProt Q93SM9, D70A); experiment: biochemical
T3 construct: gene vwb
From the text: as §1

[4] = molecular target: T4, vWbp (von Willebrand factor-binding protein) (Staphylococcus aureus, UniProt Q93SM9, M83A); experiment: biochemical
T4 construct: gene vwb
From the text: as §1

[5] = molecular target: T5, vWbp (von Willebrand factor-binding protein) (Staphylococcus aureus, UniProt Q93SM9, L69A); experiment: biochemical
T5 construct: gene vwb
From the text: as §1

[6] = molecular target: T1, vWbp (von Willebrand factor-binding protein); experiment: biolayer interferometry (Octet RED, Ni-NTA sensor); conditions: read-out: binding constant
[7] = molecular target: T1, vWbp (von Willebrand factor-binding protein); experiment: tube and plate coagulation assay; assay type: biochemical; conditions: purified vWbp added to heparinised rabbit blood or fibrinogen agarose, 37 °C; 16-256 μg/ml galangin

For `O=c1c(O)c(-c2ccccc2)oc2cc(O)cc(O)c12` [galangin, 3,5,7-trihydroxyflavone], the Kd [1] was 6.9 µM, the Kd [2] was 20 µM and the Kd [3] was 9.71 µM. The Kd [4] was 7.35 µM, the Kd [5] was 31.2 µM and the Kd [6] was 11 µM. For the same molecule, the “tube and plate coagulation assay” value [7] was “these results demonstrated that galangin can inhibit the coagulase activity of vWbp”.
